One series relates to E. coli ATCC 25922. The settings on record: ATCC 25922. The method, boiled down:
(§1)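 Mid-log cultures grown in Mueller Hinton broth at 37° C were tested by 2-fold broth microdilution at 5×10^5 CFU/mL final. Compounds were dissolved in water and tested over a final range of 32 to 0.015 μg/mL.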

The test system of series [1] is S. aureus ATCC 25923, MSSA. The following applies: ATCC 25923. Put shortly: as §1
In the next series the test system is K. pneumoniae ATCC 13883. The following applies: ATCC 13883. The method, boiled down: as §1
For series [2], the system named is P. aeruginosa GN_043, PmxR. The following applies: P. aeruginosa GN_043, PmxR. Put shortly: as §1
The test system of series [3] is K. pneumoniae ATCC BAA-2146, NDM-1 pos. The following applies: ATCC BAA-2146. The method, boiled down: as §1
In series [4] the test system is K. pneumoniae GN_106, PmxR. The following applies: GN 106, PmxR. The method, boiled down:
as §1

For the next series, the system named is A. baumannii ATCC 19606. The following applies: ATCC 19606. Put shortly:
as §1

The subject of a further series is A. baumannii GN_093 PmxR. The settings on record: GN 093 PmxR. Put shortly: as §1
Series [5] has as its system K. pneumoniae ATCC 700603, MDR. The settings on record: ATCC 700603. The method, boiled down:
as §1

The subject of another series is P. aeruginosa ATCC 27853. The following applies: ATCC 27853. Put shortly:
as §1

Series [6] has as its system K. pneumoniae GN_102 PmxR. The settings on record: GN 102 PmxR. The method, boiled down:
as §1

In series [7] the test system is P. aeruginosa GN_105, PmxR. The settings on record: GN 105, PmxR. Put shortly: as §1
The nature of the next series: in vitro. The settings on record: human. Put shortly: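 HK2 cells were seeded at 2000 per well in DMEM/F12 with 10% FBS and left to attach for 24 h at 37 °C, 5% CO2. They were then exposed for 24 h to 3-fold peptide dilutions starting from 600 μM solutions in quadruplicate. LDH release was read at 450 nm, and CC50 was fitted from dose-response curves.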

Experimental findings from patent publication US11279733B2, “Peptide antibiotics” (priority 2017, dated 2022) are described below.

Values after ≈ are worked out from the molar mass of the structure shown. Positions of bridges follow the written chain, without caps; N, C: chain ends. Non-standard residues stand in square brackets, D forms with d. Residues, ends and D or L forms follow the SMILES beside them. *: point of attachment. Decanoyl(3R-OH) = CCCCCCC[C@@H](O)CC(=O)*; dPhe(4-NH2) = Nc1ccc(C[C@@H](N)C(=O)O)cc1; d3Pal = N[C@H](Cc1cccnc1)C(=O)O; dOrn = NCCC[C@@H](N)C(=O)O; dDap = NC[C@@H](N)C(=O)O; Dab = NCC[C@H](N)C(=O)O Some results are limits rather than exact numbers.

`CCCCCCC[C@@H](O)CC(=O)N[C@H](CN)C(=O)N[C@H]1CCNC(=O)[C@H]([C@@H](C)O)NC(=O)[C@H](CCN)NC(=O)[C@H](CCN)NC(=O)[C@H](CC(C)C)NC(=O)[C@@H](Cc2ccccc2)NC(=O)[C@H](CCN)NC1=O` [compound 6395, 3(R)OH-nC9CO-D-Dap-cyc[L-Dab-L-Dab-D-Phe-L-Leu-L-Dab-L-Dab-L-Thr]] ({Decanoyl(3R-OH)}-[dDap][Dab][Dab][dF]L[Dab][Dab]T; lactam 2-C): the “MIC E. coli ATCC 25922” value with E. coli ATCC 25922 worked out at 2 mg/L (≈ 1.96 µM). In addition, the “MIC S. aureus ATCC 25923, MSSA” value in series [1] is more than 32 mg/L. Further, the “MIC K. pneumoniae ATCC 13883” value in the series on K. pneumoniae ATCC 13883 was 8 mg/L (≈ 7.86 µM). Besides, the “MIC P. aeruginosa GN_043, PmxR” value in series [2] turned out to be 2 mg/L (≈ 1.96 µM). Also, the “MIC K. pneumoniae ATCC BAA-2146, NDM-1 pos” value in series [3] was 2 mg/L (≈ 1.96 µM). In addition, the “MIC K. pneumoniae GN_106, PmxR” value in series [4] came out at 32 mg/L (≈ 31.4 µM). The “MIC A. baumannii ATCC 19606” value against A. baumannii ATCC 19606 is 16 mg/L (≈ 15.7 µM). For the same compound, in the series with A. baumannii GN_093 PmxR, the “MIC A. baumannii GN_093 PmxR” value is more than 32 mg/L. Also, the “MIC K. pneumoniae ATCC 700603, MDR” value in series [5] stood at 1 mg/L (≈ 0.982 µM). In the series on P. aeruginosa ATCC 27853, the “MIC P. aeruginosa ATCC 27853” value is 2 mg/L (≈ 1.96 µM). Moreover, in series [6], the “MIC K. pneumoniae GN_102 PmxR” value was found to be 16 mg/L (≈ 15.7 µM). For the same compound, the “MIC P. aeruginosa GN_105, PmxR” value in series [7] worked out at 2 mg/L (≈ 1.96 µM). Besides, the CC50 at 24 h in “in vitro” was more than 300 µM.

As for `CCCCCCC[C@@H](O)CC(=O)N[C@H](CCCN)C(=O)N[C@H]1CCNC(=O)[C@H]([C@@H](C)O)NC(=O)[C@H](CCN)NC(=O)[C@H](CCN)NC(=O)[C@H](CC(C)C)NC(=O)[C@@H](Cc2ccccc2)NC(=O)[C@H](CCN)NC1=O` [compound 6396, 3(R)OH-nC9CO-D-Orn-cyc[L-Dab-L-Dab-D-Phe-L-Leu-L-Dab-L-Dab-L-Thr]] ({Decanoyl(3R-OH)}-[dOrn][Dab][Dab][dF]L[Dab][Dab]T; lactam 2-C), the “MIC E. coli ATCC 25922” value against E. coli ATCC 25922 worked out at 16 mg/L (≈ 15.3 µM). In addition, in series [1], the “MIC S. aureus ATCC 25923, MSSA” value was more than 32 mg/L. For the same compound, the “MIC K. pneumoniae ATCC 13883” value in the series on K. pneumoniae ATCC 13883 was more than 64 mg/L. In addition, the “MIC P. aeruginosa GN_043, PmxR” value in series [2] came out at 16 mg/L (≈ 15.3 µM). Also, the “MIC K. pneumoniae ATCC BAA-2146, NDM-1 pos” value in [3] came to 32 mg/L (≈ 30.6 µM). Further, the “MIC K. pneumoniae GN_106, PmxR” value in series [4] is more than 32 mg/L. For the same compound, the “MIC A. baumannii ATCC 19606” value against A. baumannii ATCC 19606 was more than 64 mg/L. In addition, the “MIC A. baumannii GN_093 PmxR” value in the series with A. baumannii GN_093 PmxR was more than 32 mg/L. Further, the “MIC K. pneumoniae ATCC 700603, MDR” value in series [5] was found to be 16 mg/L (≈ 15.3 µM). In addition, in the series on P. aeruginosa ATCC 27853, the “MIC P. aeruginosa ATCC 27853” value came out at 16 mg/L (≈ 15.3 µM). In addition, in series [6], the “MIC K. pneumoniae GN_102 PmxR” value was more than 32 mg/L. Moreover, the “MIC P. aeruginosa GN_105, PmxR” value in series [7] turned out to be 16 mg/L (≈ 15.3 µM). Moreover, the CC50 at 24 h in “in vitro” is more than 300 µM.

With `CCCCCCC[C@@H](O)CC(=O)N[C@H](Cc1ccc(N)cc1)C(=O)N[C@H]1CCNC(=O)[C@H]([C@@H](C)O)NC(=O)[C@H](CCN)NC(=O)[C@H](CCN)NC(=O)[C@H](CC(C)C)NC(=O)[C@@H](Cc2ccccc2)NC(=O)[C@H](CCN)NC1=O` [compound 6397, 3(R)OH-nC9CO-D-4NH2Phe-cyc[L-Dab-L-Dab-D-Phe-L-Leu-L-Dab-L-Dab-L-Thr]] ({Decanoyl(3R-OH)}-[dPhe(4-NH2)][Dab][Dab][dF]L[Dab][Dab]T; lactam 2-C), in the series on E. coli ATCC 25922, the “MIC E. coli ATCC 25922” value was more than 64 mg/L. For the same compound, in [1], the “MIC S. aureus ATCC 25923, MSSA” value was more than 32 mg/L. For the same compound, in the series on K. pneumoniae ATCC 13883, the “MIC K. pneumoniae ATCC 13883” value is more than 64 mg/L. Moreover, in [2], the “MIC P. aeruginosa GN_043, PmxR” value is more than 32 mg/L. The “MIC K. pneumoniae ATCC BAA-2146, NDM-1 pos” value in series [3] was more than 64 mg/L. In [4], the “MIC K. pneumoniae GN_106, PmxR” value was more than 32 mg/L. In addition, the “MIC A. baumannii ATCC 19606” value against A. baumannii ATCC 19606 is more than 64 mg/L. Also, the “MIC A. baumannii GN_093 PmxR” value against A. baumannii GN_093 PmxR is more than 32 mg/L. Besides, the “MIC K. pneumoniae ATCC 700603, MDR” value in series [5] was more than 64 mg/L. In the series with P. aeruginosa ATCC 27853, the “MIC P. aeruginosa ATCC 27853” value is more than 64 mg/L. For the same compound, in series [6], the “MIC K. pneumoniae GN_102 PmxR” value is more than 32 mg/L. For the same compound, the “MIC P. aeruginosa GN_105, PmxR” value in series [7] was more than 32 mg/L. In the series “in vitro”, this compound displayed a CC50 at 24 h of more than 300 µM.

In the case of `CCCCCCC[C@@H](O)CC(=O)N[C@H](Cc1cccnc1)C(=O)N[C@H]1CCNC(=O)[C@H]([C@@H](C)O)NC(=O)[C@H](CCN)NC(=O)[C@H](CCN)NC(=O)[C@H](CC(C)C)NC(=O)[C@@H](Cc2ccccc2)NC(=O)[C@H](CCN)NC1=O` [compound 6398, 3(R)OH-nC9CO-D-3PyPhe-cyc[L-Dab-L-Dab-D-Phe-L-Leu-L-Dab-L-Dab-L-Thr]] ({Decanoyl(3R-OH)}-[d3Pal][Dab][Dab][dF]L[Dab][Dab]T; lactam 2-C), in the series with E. coli ATCC 25922, the “MIC E. coli ATCC 25922” value is more than 64 mg/L. Also, in series [1], the “MIC S. aureus ATCC 25923, MSSA” value was more than 32 mg/L. For the same compound, in the series on K. pneumoniae ATCC 13883, the “MIC K. pneumoniae ATCC 13883” value is more than 64 mg/L. Also, in series [2], the “MIC P. aeruginosa GN_043, PmxR” value was more than 32 mg/L. Besides, the “MIC K. pneumoniae ATCC BAA-2146, NDM-1 pos” value in series [3] is more than 64 mg/L. In addition, the “MIC K. pneumoniae GN_106, PmxR” value in [4] was more than 32 mg/L. Further, in the series on A. baumannii ATCC 19606, the “MIC A. baumannii ATCC 19606” value is more than 64 mg/L. In the series with A. baumannii GN_093 PmxR, the “MIC A. baumannii GN_093 PmxR” value was more than 32 mg/L. Further, in series [5], the “MIC K. pneumoniae ATCC 700603, MDR” value was more than 64 mg/L. In the series with P. aeruginosa ATCC 27853, the “MIC P. aeruginosa ATCC 27853” value amounted to 32 mg/L (≈ 29.6 µM). The “MIC K. pneumoniae GN_102 PmxR” value in series [6] came to 32 mg/L (≈ 29.6 µM). The “MIC P. aeruginosa GN_105, PmxR” value in [7] is more than 32 mg/L. The same compound came in with a CC50 at 24 h in the series “in vitro” of more than 300 µM.
